Measurements from ChEMBL document CHEMBL1201862, “PubChem BioAssay data set” (2004).
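The compound was tested at five concentrations on cells cultured in 96-well plates, with a 48-hour exposure period. GI50: concentration for 50% inhibition of growth.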 Active and inactive are the calls of the source. Rule as the data show it: active = GI50 up to about 1.1 µM and inactive = higher.

Experiments:
Assay in all cases: growth of human tumour cells (NCI), 48 h
DLD-1 = tested on: DLD-1
DMS-273 = tested on: DMS-273
HOP-18 = tested on: HOP-18
KM-20L2 = tested on: KM-20L2
SNB-78 = tested on: SNB-78
XF498 = tested on: XF498
LXFL 529 = tested on: LXFL 529
MDA-N = tested on: MDA-N
RXF 631 = tested on: RXF 631

Compound	GI50 (DLD-1)	GI50 (DMS-273)	GI50 (KM-20L2)	GI50 (MDA-N)	other results
O=C1C=C2SC3C[C@@]24CC1(O)[N+]1=c2c4c(c(O)c4c2=C(C=N4)CC1)N3	1.11 µM (active)	1.42 µM (inactive)	0.313 µM (active)		GI50 (HOP-18): 2.43 µM (inactive); GI50 (SNB-78): 1.61 µM (inactive); GI50 (XF498): 1.85 µM (inactive)
O/N=C1/CCCC/C1=C/C=C/c1ccccc1	29.6 µM (inactive)		18.5 µM (inactive)		GI50 (HOP-18): 25.8 µM (inactive); GI50 (LXFL 529): 26 µM (inactive); GI50 (SNB-78): 25.5 µM (inactive)
Cc1c/c(=N\c2ccc3c(c2)c(N)cc(C)[n+]3C)nc(N)n1C				> 100 µM (inactive)	
O=C1C(c2ccccc2)=C(O)c2cccc3cccc1c23		> 100 µM (inactive)	> 100 µM (inactive)		GI50 (HOP-18): 33.6 µM (inactive); GI50 (LXFL 529): > 100 µM (inactive); GI50 (SNB-78): > 100 µM (inactive); GI50 (XF498): > 100 µM (inactive)
CC1(C)CC2C(C1=O)C1(C)CCCC2(C)C1=O (configuration not stated)				> 100 µM (inactive)	
NCCCCCCn1c(-c2ccc(Br)cc2)cs/c1=N\c1ccccc1				6.28 µM (inactive)	
CC(C)(C)c1cc(C2c3cc4c(cc3OC(O)(CO)C2C(=O)O)OCO4)cc(C(C)(C)C)c1O.CC(C)(C)c1cc(C2c3cc4c(cc3OC3(O)COC(=O)C23)OCO4)cc(C(C)(C)C)c1O (configuration not stated)	11.7 µM (inactive)	14 µM (inactive)	17 µM (inactive)		GI50 (HOP-18): 7.78 µM (inactive); GI50 (RXF 631): 13.1 µM (inactive)
OC(CC1SCCCS1)c1ccccc1 (configuration not stated)	> 100 µM (inactive)	> 100 µM (inactive)	> 100 µM (inactive)		GI50 (HOP-18): > 100 µM (inactive); GI50 (LXFL 529): > 100 µM (inactive); GI50 (XF498): > 100 µM (inactive)
Cc1ccc(-n2nnc(C(N)=O)c2O)cc1				> 100 µM (inactive)	
CN(Cc1c[n+]([O-])c2nc(N)nc(N)c2n1)c1ccc(C(=O)NC23CC4CC(CC(C4)C2)C3)cc1				70.6 µM (inactive)	
CN(C)C(=S)/N=c1\ss/c(=N\C(=S)N(C)C)n1C1CCCCC1			> 100 µM (inactive)		GI50 (SNB-78): 49.4 µM (inactive)
CC1=CC2=C(C=O)C(=O)[C@](C)(O)[C@@H](O)C2=CO1	28.9 µM (inactive)	28.9 µM (inactive)	1.21 µM (inactive)		GI50 (HOP-18): > 54.5 µM (inactive); GI50 (SNB-78): 38.5 µM (inactive); GI50 (XF498): > 54.3 µM (inactive)
S=C(Nc1ccc2c(c1)Cc1ccccc1-2)Nc1ccc2c(c1)Cc1ccccc1-2				> 100 µM (inactive)	
O=C(O)C(Cc1ccccc1-c1ccccc1)C(=O)O				> 100 µM (inactive)	
O=C(NC1C(=O)NNC1c1ccccc1Cl)c1ccccc1 (configuration not stated)	> 100 µM (inactive)	> 100 µM (inactive)	> 100 µM (inactive)		GI50 (HOP-18): > 100 µM (inactive); GI50 (LXFL 529): > 100 µM (inactive); GI50 (XF498): > 100 µM (inactive)
CC1(CO)C(O)CCC2(C)C1C(O)CC1CC3CC12CCC3(O)CO (configuration not stated)	> 225 µM (inactive)	104 µM (inactive)	> 225 µM (inactive)		GI50 (HOP-18): > 225 µM (inactive); GI50 (SNB-78): > 225 µM (inactive); GI50 (XF498): 29.6 µM (inactive)
CC1(C)O[C@H](C(=O)O)[C@@H](C(=O)O)O1				> 100 µM (inactive)	
COc1ccc(C(O)c2ccccn2)cc1 (configuration not stated)				> 100 µM (inactive)	
C=C(C)COC(=O)COCC(=O)OCC(=C)C				> 100 µM (inactive)	
N#CC1(C#N)C2CCCCC23OC(=N)C1(C#N)C(c1ccccc1)O3 (configuration not stated)				14 µM (inactive)	
Clc1ccc(OCC2NC3C=CC32)cn1 (configuration not stated)				> 100 µM (inactive)	

Compound	GI50 (DLD-1)	GI50 (DMS-273)	GI50 (KM-20L2)	GI50 (MDA-N)	other results
Cc1ccccc1NC(=O)c1ccc([N+](=O)[O-])cc1	> 100 µM (inactive)	80.5 µM (inactive)	> 100 µM (inactive)		GI50 (HOP-18): > 100 µM (inactive); GI50 (LXFL 529): > 100 µM (inactive); GI50 (SNB-78): > 100 µM (inactive); GI50 (XF498): > 100 µM (inactive)
O=C(Cc1ccc(Cl)c(Cl)c1)NCC1(N2CCCCC2)CCCCC1				37 µM (inactive)	
O=C(O)Cn1cnc2c(O)nc(Nc3ccccc3)nc21				> 100 µM (inactive)	
N#C/C(=C\c1ccc(O)c(O)c1)C(N)=O	48.2 µM (inactive)	57.7 µM (inactive)	50.4 µM (inactive)		GI50 (LXFL 529): 40.7 µM (inactive); GI50 (RXF 631): 56 µM (inactive); GI50 (SNB-78): > 100 µM (inactive)
NNS(=O)(=O)c1cc(C(=O)O)cc(C(=O)O)c1				> 100 µM (inactive)	
N#Cc1c(N2CCCC2)nsc1Nc1ccccc1				> 100 µM (inactive)	
Cn1c2c(c3ccccc31)CCN(CCCN1CCN(c3ccccc3)CC1)C2=O	19.7 µM (inactive)	21.5 µM (inactive)	12.8 µM (inactive)		GI50 (HOP-18): 15.5 µM (inactive); GI50 (LXFL 529): 17.9 µM (inactive); GI50 (XF498): 12.6 µM (inactive)
C1CSC2=C(S1)SC1=C(S2)SC(=C2SC3=C(SC4=C(SCCS4)S3)S2)S1				> 100 µM (inactive)	
Cc1ccc(S(=O)(=O)N2CC2CCCCC=O)cc1 (configuration not stated)				> 100 µM (inactive)	
CN1CCN(C(=S)N(C(=O)c2ccc(Cl)cc2)C2CCCCC2)CC1				> 100 µM (inactive)	
NC(CSC(=O)c1ccccc1)C(=O)O (configuration not stated)				> 100 µM (inactive)	
O=C(Cn1c(=O)oc2ccc(C(=O)c3ccc(F)cc3)cc21)c1ccccc1				> 100 µM (inactive)	
CCOC(=O)N/N=C(/N)c1cccc([N+](=O)[O-])c1				> 100 µM (inactive)	
COc1cc([N+](=O)[O-])c(S(=O)(=O)O)cc1-n1nc(C(=O)Nc2ccccc2)n[n+]1-c1cc(S(=O)(=O)[O-])c([N+](=O)[O-])cc1OC				> 100 µM (inactive)	
O=[N+]([O-])c1ccc(O)c(/C=N/CC2CCCN3CCCCC23)c1 (configuration not stated)				44.8 µM (inactive)	
C1CCN2CC3CCCN4CCCC(C2C1)C34 (configuration not stated)				> 100 µM (inactive)	
O=[PH](O)c1cc2ccccc2c2ccccc12	> 100 µM (inactive)	> 100 µM (inactive)	> 100 µM (inactive)		GI50 (HOP-18): > 100 µM (inactive); GI50 (LXFL 529): > 100 µM (inactive); GI50 (SNB-78): > 100 µM (inactive)
COC(=O)C1=C(O)C(C(=O)OC)[C@]2(O)[C@H](C(=O)OC)[C@H]1C[C@@H](c1cccc(OC)c1)[C@H]2C(=O)OC (some centres not stated)				15.6 µM (inactive)	
C[C@]1(O)CC(=O)c2c(c(-c3ccc4cc5c(c(O)c4c3O)C(=O)C[C@@](C)(O)C5)c3cccc(O)c3c2O)C1				4.56 µM (inactive)	
CCN(CC)CC1CCCCN1CC(=O)N1CC(C)C(=O)Nc2ccccc21 (configuration not stated)	> 100 µM (inactive)	> 100 µM (inactive)	> 100 µM (inactive)		GI50 (HOP-18): > 100 µM (inactive); GI50 (LXFL 529): > 100 µM (inactive)
CC(=O)O[C@H]1C[C@H](O[C@H]2[C@@H](O)C[C@H](O[C@H]3[C@@H](O)C[C@H](O[C@H]4CC[C@@]5(C)[C@H](CC[C@@H]6[C@@H]5CC[C@]5(O)[C@@H](C7=CC(=O)OC7)CC[C@]65O)C4)O[C@@H]3C)O[C@@H]2C)O[C@H](C)[C@H]1O[C@@H]1O[C@H](CO)[C@@H](O)[C@H](O)[C@H]1O				0.45 µM (active)	

Compound	GI50 (DLD-1)	GI50 (DMS-273)	GI50 (KM-20L2)	GI50 (MDA-N)	other results
[N-]=[N+]=NC1(Cc2ccccc2)C(=O)Nc2ccccc2C1=O (configuration not stated)	> 100 µM (inactive)	> 100 µM (inactive)	> 100 µM (inactive)		GI50 (HOP-18): > 100 µM (inactive); GI50 (LXFL 529): > 100 µM (inactive); GI50 (SNB-78): 52.8 µM (inactive); GI50 (XF498): > 100 µM (inactive)
O=C(Oc1ccccn1)c1cc2cc(CCl)ccc2oc1=O				43.5 µM (inactive)	
O=C(c1ccco1)N(C(=S)N1CCN(c2ccccc2)CC1)C1CCCCC1	85.1 µM (inactive)	59.4 µM (inactive)	90.4 µM (inactive)		GI50 (HOP-18): > 100 µM (inactive); GI50 (LXFL 529): 95.5 µM (inactive); GI50 (SNB-78): > 100 µM (inactive)
COc1ccc2oc(S(=O)(=O)N3CC(CCl)c4ccc([N+](=O)[O-])cc43)cc2c1 (configuration not stated)				0.0301 µM (active)	
[N-]=[N+]=Nc1c(Cl)c(Cl)nc2ccccc12				> 100 µM (inactive)	
CC(NC(=O)C(NC(=O)CNC(=O)OC(C)(C)C)C(C)C)C(=O)Oc1c(Cl)c(Cl)c(Cl)c(Cl)c1Cl (configuration not stated)				25.1 µM (inactive)	
C(#C[C@@]12CCC[C@@H]1N(Cc1ccccc1)CO2)c1ccc2c(c1)OCO2				> 100 µM (inactive)	
c1ccc(CCCNc2nnnc3ccccc23)cc1				69 µM (inactive)	
CC(=O)OC(CC1(C)C(C)CCC23COC(=O)C2=CCCC31)c1ccoc1 (configuration not stated)	26 µM (inactive)		19.3 µM (inactive)		GI50 (LXFL 529): 18.4 µM (inactive); GI50 (SNB-78): 25.4 µM (inactive); GI50 (XF498): 20.8 µM (inactive)
O=[N+]([O-])c1ccc(/C(Cl)=C/c2ccc(/C=C(\Cl)c3ccc([N+](=O)[O-])cc3[N+](=O)[O-])cc2)c([N+](=O)[O-])c1	> 100 µM (inactive)	> 100 µM (inactive)	0.188 µM (active)		GI50 (LXFL 529): > 100 µM (inactive); GI50 (RXF 631): > 100 µM (inactive); GI50 (SNB-78): > 100 µM (inactive)
O=C1OC(c2ccccc2)=N/C1=C/NC(CS)C(=O)O (configuration not stated)	> 100 µM (inactive)	> 100 µM (inactive)	> 100 µM (inactive)		GI50 (LXFL 529): > 100 µM (inactive); GI50 (SNB-78): > 100 µM (inactive)
CCN(CC)c1ccc2cc(-c3csc(-c4ccc(N(C)C)cc4)n3)c(=O)oc2c1				> 100 µM (inactive)	
COC1CC(C)C(OC)c2cc(O)cc(c2O)NC(=O)/C(C)=C/C=C\C(C)C(OC(N)=O)/C(C)=C\C(C)C1OC (configuration not stated)		0.225 µM (active)	0.188 µM (active)	0.144 µM (active)	GI50 (HOP-18): 0.0925 µM (active); GI50 (LXFL 529): 0.191 µM (active); GI50 (SNB-78): 1.42 µM (inactive)
COc1ccc(-n2cnc3c(NC(Cc4ccccc4)C(=O)O)ncnc32)cc1 (configuration not stated)				> 100 µM (inactive)	
O=C(CC(=O)Nc1ccccc1)NNC(c1cc(/N=N/c2ccc(Br)cc2)ccc1O)P(O)O (configuration not stated)				3.83 µM (inactive)	
COC[C@H]1OC(=O)c2coc3c2[C@@]1(C)C1=C(C3=O)[C@@H]2CCC(=O)[C@@]2(C)C[C@H]1OC(C)=O [WORTMANNIN]				15.1 µM (inactive)	
Cc1cc(N(CCC#N)CCC#N)ccc1/C=C(\NC(=O)/C=C/c1ccccc1)C(=O)NN	> 100 µM (inactive)	> 100 µM (inactive)	> 100 µM (inactive)	> 100 µM (inactive)	GI50 (LXFL 529): > 100 µM (inactive); GI50 (SNB-78): > 100 µM (inactive); GI50 (XF498): 25.6 µM (inactive)
CN(C)CCNCc1ccc2c(-c3ccccc3)nc3cc(Cl)c(Cl)cc3n12				9.48 µM (inactive)	
COC(=O)c1c(C)cc2c(c1O)C1(O)C(=O)c3cc4c(c(O)c3C(=O)C1(OC)C(O)C2)C(=O)C=C(NC1OC(C)C(OC)C(O)C1OC)C4=O (configuration not stated)	0.0199 µM (active)	0.103 µM (active)	0.104 µM (active)		GI50 (LXFL 529): 0.0679 µM (active); GI50 (SNB-78): 0.0521 µM (active); GI50 (XF498): 0.114 µM (active)
COC(=O)/C(=C\c1ccco1)P(=O)(OC)OC				56.1 µM (inactive)	
O=S(=O)(O)c1cc(S(=O)(=O)O)c2c(/N=N/c3ccc(S(=O)(=O)O)c4ccccc34)c(O)ccc2c1				> 100 µM (inactive)	
